From patent US12629385B2, “Stable AST-3424 injection preparation and preparation method” (OBI PHARMA, INC., priority 2019, dated 2026)

Tests used:
[1] = Solubility test of AST-3424 at 25° C. (shaking incubator, HPLC content, pH); assay type: physicochemical; conditions: for Content (solubility study): 25° C.
Description: An appropriate amount of AST-3424 (hereinafter referred to as the active pharmaceutical ingredient or API) was measured, and put in a suitable container containing 40 ml of the above solution (20 ml for an organic solvent) until there were excessive AST-3424 oil droplets in the solution.
The samples were placed in a constant-temperature shaking incubator, the temperature of which was maintained at 25° C. The samples were shaken at an appropriate speed (100 rpm). Sampling was carried out at each predetermined time point as listed in Table 1, and the pH was examined. Then, the samples were centrifuged (10000 rpm, 10 min), and diluted to a concentration suitable for HPLC analysis (note: accurately recording the dilution ratio after the test) by adding the corresponding solution or organic solvent (dissolving API for solubility study), so as to obtain solubility data.
(§1) For samples used for the assay in the solubility study, about 1 ml of the culture medium was measured, then the resultant was centrifuged at 10000 rpm for 10 min, and the clear solution in […] was collected for HPLC analysis. For the study on solution stability, the samples could be directly injected into HPLC for analysis.
(§2) Content determination by HPLC method: AST-3424 was used as an external standard for quantitation.
According to the results of solution stability, AST-3424 was very unstable in the pH4.5 acetate buffer. Therefore, the solubility was tested in the pH6.8 phosphate buffer, the pH7.4 phosphate buffer, the pH10.0 alkaline borate buffer, and the purified water. An appropriate amount of AST-3424 was weighed and put into 40 mL of medium (ethanol/propylene glycol: 8 mL, 50:50V/V) until there were excessive floccules in the solution. If the solubility of API in the aqueous solution was greater than 2% (20 mg/ml), there was no need to add more API.

[2] = Study on solution stability of AST-3424 in different solutions (HPLC content, pH); assay type: physicochemical
Description: Approximate 107.32 mg of AST-3424 (50% v/v, ethanol) was measured, and put in 50-ml volumetric flasks, to which solvents (organic solvents, buffer solutions, or purified water) were added to the scale, respectively. At each predetermined time point, 1 ml of the sample was measured for HPLC analysis. If API was stable in different pH solutions, the sampling time would be extended, e.g., 5 days or longer.
as §1, §2
UVDAD detector: wavelength: 230 nm. C18 column, column temperature: 25° C.
• A: 10 mmol/L ammonium acetate solution obtained by dissolving ammonium acetate in a mixed solvent of 95% water and 5% acetonitrile by volume; • B: 8 mmol/L ammonium acetate solution obtained by dissolving ammonium acetate in a mixed solvent of 95% acetonitrile and 5% water by volume;
Gradient elution was performed.

C[C@H](OP(=O)(N1CC1)N1CC1)c1ccc([N+](=O)[O-])c(Oc2cccc(C(=O)N(C)C)c2)c1 [AST-3424, (S)-1-(3-(3-N,N-dimethylaminocarbonyl)phenoxyl-4-nitrophenyl)-1-ethyl-N,N′-bis(ethylene)phosphoramidate]
Content (solubility study) ([1]; Ethanol/propylene glycol (50:50, v/v), 1 h): 271.28 mg/mL | Content (solubility study) ([1]; Ethanol/propylene glycol (50:50, v/v), 8 h): 301.33 mg/mL | Content (solubility study) ([1]; Ethanol/propylene glycol (50:50, v/v), 24 h): 298.85 mg/mL | Solubility, description of terms ([1]; alcohol solvents such as ethanol/propylene glycol (50:50, v/v)): Freely soluble | pH value (solubility study) ([1]; excess AST-3424 in pH 6.8 phosphate buffer, 1 h): 6.856 | pH value (solubility study) ([1]; excess AST-3424 in pH 6.8 phosphate buffer, 4 h): 6.837 | pH value (solubility study) ([1]; excess AST-3424 in pH 6.8 phosphate buffer, 8 h): 6.855 | pH value (solubility study) ([1]; excess AST-3424 in pH 6.8 phosphate buffer, 24 h): 6.841 | pH value (solubility study) ([1]; excess AST-3424 in pH 6.8 phosphate buffer, 48 h): 6.860 | pH value (solubility study) ([1]; excess AST-3424 in pH 7.4 phosphate buffer, 1 h): 7.477 | pH value (solubility study) ([1]; excess AST-3424 in pH 7.4 phosphate buffer, 4 h): 7.462 | pH value (solubility study) ([1]; excess AST-3424 in pH 7.4 phosphate buffer, 8 h): 7.475 | pH value (solubility study) ([1]; excess AST-3424 in pH 7.4 phosphate buffer, 24 h): 7.455 | pH value (solubility study) ([1]; excess AST-3424 in pH 7.4 phosphate buffer, 48 h): 7.482 | pH value (solubility study) ([1]; excess AST-3424 in pH 10.0 alkaline borate buffer, 1 h): 9.998 | pH value (solubility study) ([1]; excess AST-3424 in pH 10.0 alkaline borate buffer, 4 h): 9.980 | pH value (solubility study) ([1]; excess AST-3424 in pH 10.0 alkaline borate buffer, 8 h): 9.971 | pH value (solubility study) ([1]; excess AST-3424 in pH 10.0 alkaline borate buffer, 24 h): 9.932 | pH value (solubility study) ([1]; excess AST-3424 in pH 10.0 alkaline borate buffer, 48 h): 9.952 | pH value (solubility study) ([1]; excess AST-3424 in purified water, 1 h): 5.004 | pH value (solubility study) ([1]; excess AST-3424 in purified water, 4 h): 5.651 | pH value (solubility study) ([1]; excess AST-3424 in purified water, 8 h): 5.971 | pH value (solubility study) ([1]; excess AST-3424 in purified water, 24 h): 6.378 | pH value (solubility study) ([1]; excess AST-3424 in purified water, 48 h): 6.512 | Solubility (initial investigation, words) ([1]; methanol, propanol, butanol, ethylene glycol, propylene glycol, glycerol, 1,3-butanediol, 1,2-butanediol): good solubility | Content (solubility study) ([1]; pH 6.8 (phosphate buffer), 4 h): 22.92 mg/mL | Content (solubility study) ([1]; pH 6.8 (phosphate buffer), 8 h): 23.03 mg/mL | pH of the solutions of API at different time points ([1]; pH6.8, pH7.4 and pH10.0 media): remained unchanged | Content (solubility study) ([1]; pH 7.4 (phosphate buffer), 1 h): 23.65 mg/mL | Content (solubility study) ([1]; pH 7.4 (phosphate buffer), 4 h): 23.47 mg/mL | Content (solubility study) ([1]; pH 7.4 (phosphate buffer), 8 h): 23.56 mg/mL | Content (solubility study) ([1]; pH 7.4 (phosphate buffer), 24 h): 23.65 mg/mL | Content (solubility study) ([1]; pH 10.0 (alkaline borate buffer), 1 h): 23.50 mg/mL | Content (solubility study) ([1]; pH 10.0 (alkaline borate buffer), 4 h): 23.56 mg/mL | Content (solubility study) ([1]; pH 10.0 (alkaline borate buffer), 8 h): 23.48 mg/mL | Content (solubility study) ([1]; pH 10.0 (alkaline borate buffer), 24 h): 23.49 mg/mL | Solubility, description of terms ([1]; water, pH6.8 phosphate buffer, pH7.4 phosphate buffer, pH10.0 alkaline borate buffer): sparingly soluble | pH value ([2]; AST-3424 solution in pH 4.5 acetate buffer, 0 h): 4.497 | pH value ([2]; AST-3424 solution in pH 4.5 acetate buffer, 72 h): 4.477 | pH value ([2]; AST-3424 solution in pH 6.8 phosphate buffer, 0 h): 6.815 | pH value ([2]; AST-3424 solution in pH 6.8 phosphate buffer, 72 h): 6.855 | pH value ([2]; AST-3424 solution in pH 7.4 phosphate buffer, 0 h): 7.481 | pH value ([2]; AST-3424 solution in pH 7.4 phosphate buffer, 72 h): 7.534 | pH value ([2]; AST-3424 solution in pH 10.0 alkaline borate buffer, 0 h): 9.984 | pH value ([2]; AST-3424 solution in pH 10.0 alkaline borate buffer, 72 h): 10.023 | pH value ([2]; AST-3424 solution in purified water, 0 h): 5.152 | pH value ([2]; AST-3424 solution in purified water, 72 h): 6.435 | Content ([2]; Ethanol/propylene glycol (50:50, v/v), 0 h, room temperature): 1.295 mg/mL | Content ([2]; Ethanol/propylene glycol (50:50, v/v), 1 h, room temperature): 1.287 mg/mL | Content ([2]; Ethanol/propylene glycol (50:50, v/v), 4 h, room temperature): 1.287 mg/mL | Content ([2]; Ethanol/propylene glycol (50:50, v/v), 8 h, room temperature): 1.287 mg/mL | Content ([2]; Ethanol/propylene glycol (50:50, v/v), 24 h, room temperature): 1.302 mg/mL | Content ([2]; Ethanol/propylene glycol (50:50, v/v), 48 h, room temperature): 1.284 mg/mL | Content ([2]; Ethanol/propylene glycol (50:50, v/v), 72 h, room temperature): 1.275 mg/mL | Content ([2]; Ethanol, 0 h, room temperature): 1.238 mg/mL | Content ([2]; Ethanol, 1 h, room temperature): 1.280 mg/mL | Content ([2]; Ethanol, 4 h, room temperature): 1.246 mg/mL | Content ([2]; Ethanol, 8 h, room temperature): 1.240 mg/mL | Content ([2]; Ethanol, 24 h, room temperature): 1.240 mg/mL | Content ([2]; Ethanol, 48 h, room temperature): 1.278 mg/mL | Content ([2]; Ethanol, 72 h, room temperature): 1.236 mg/mL | Content ([2]; Purified water, 0 h, room temperature): 1.186 mg/mL | Content ([2]; Purified water, 1 h, room temperature): 1.126 mg/mL | Content ([2]; Purified water, 4 h, room temperature): 1.056 mg/mL | Content ([2]; Purified water, 8 h, room temperature): 1.005 mg/mL | Content ([2]; Purified water, 24 h, room temperature): 0.918 mg/mL | Content ([2]; Purified water, 48 h, room temperature): 0.860 mg/mL | Content ([2]; Purified water, 72 h, room temperature): 0.810 mg/mL | Solution stability ([2]; pH4.5 acetate buffer): very unstable | Content ([2]; pH 4.5 acetate buffer, 0 h, room temperature): 0.673 mg/mL | Content ([2]; pH 4.5 acetate buffer, 1 h, room temperature): 0.413 mg/mL | Content ([2]; pH 4.5 acetate buffer, 4 h, room temperature): 0.218 mg/mL | Content ([2]; pH 4.5 acetate buffer, 8 h, room temperature): 0.093 mg/mL | Content ([2]; pH 4.5 acetate buffer, 24 h, room temperature): 0.013 mg/mL | Content ([2]; pH 6.8 phosphate buffer, 0 h, room temperature): 1.202 mg/mL | Content ([2]; pH 6.8 phosphate buffer, 1 h, room temperature): 1.200 mg/mL | Content ([2]; pH 6.8 phosphate buffer, 4 h, room temperature): 1.193 mg/mL | Content ([2]; pH 6.8 phosphate buffer, 8 h, room temperature): 1.185 mg/mL | Content ([2]; pH 6.8 phosphate buffer, 24 h, room temperature): 1.168 mg/mL | Content ([2]; pH 6.8 phosphate buffer, 48 h, room temperature): 1.145 mg/mL | Content ([2]; pH 6.8 phosphate buffer, 72 h, room temperature): 1.102 mg/mL | Solution stability ([2]; pH7.4 phosphate buffer): stable | Content ([2]; pH 7.4 phosphate buffer, 0 h, room temperature): 1.267 mg/mL | Content ([2]; pH 7.4 phosphate buffer, 1 h, room temperature): 1.266 mg/mL | Content ([2]; pH 7.4 phosphate buffer, 4 h, room temperature): 1.266 mg/mL | Content ([2]; pH 7.4 phosphate buffer, 8 h, room temperature): 1.262 mg/mL | Content ([2]; pH 7.4 phosphate buffer, 24 h, room temperature): 1.262 mg/mL | Content ([2]; pH 7.4 phosphate buffer, 48 h, room temperature): 1.249 mg/mL | Content ([2]; pH 7.4 phosphate buffer, 72 h, room temperature): 1.228 mg/mL | Content ([2]; pH 10.0 (alkaline borate buffer), 0 h, room temperature): 1.265 mg/mL | Content ([2]; pH 10.0 (alkaline borate buffer), 1 h, room temperature): 1.265 mg/mL | Content ([2]; pH 10.0 (alkaline borate buffer), 4 h, room temperature): 1.261 mg/mL | Content ([2]; pH 10.0 (alkaline borate buffer), 8 h, room temperature): 1.258 mg/mL | Content ([2]; pH 10.0 (alkaline borate buffer), 24 h, room temperature): 1.261 mg/mL | Content ([2]; pH 10.0 (alkaline borate buffer), 48 h, room temperature): 1.257 mg/mL | Content ([2]; pH 10.0 (alkaline borate buffer), 72 h, room temperature): 1.242 mg/mL | Time for which API was stable in solution ([2]; room temperature, ethanol, ethanol/propylene glycol=1/1, pH7.4 and pH10.0 buffer solutions): at least 72 h | Solution stability ([2]; room temperature, pH4.5 solution and water): unstable | Time for which API was stable in solution ([2]; room temperature, pH6.8 solution): at least 24 h | Solution stability ([2]; water and pH6.8 phosphate buffer): relatively poor stability
